Each structure is given as a SMILES string. ≈ marks a conversion by molar mass, not a printed value.

One data set relates to P-glycoprotein (MDR1). Description: MDR1-MDCK cell bi-directional permeability. In kind it is in vitro ADME. To be noted: dog; for Papp A→B at 2.5 h, 2 μM: A to B, HBSS pH 7.4, read-out: MDR1-MDCK Monolayer Cell Bi-directional Permeability Parameters A to B; for Papp B→A at 2.5 h, 2 μM: B to A, HBSS pH 7.4, read-out: MDR1-MDCK Monolayer Cell Bi-directional Permeability Parameters B to A; for efflux ratio at 2.5 h, 2 μM: HBSS pH 7.4, read-out: MDR1-MDCK Monolayer Cell Bi-directional Permeability Parameters Efflux Ratio. An excerpt:
2. MDR1-MDCK cell bi-directional permeability evaluation experiment: MDR1-MDCK cells that permanently express human P-glycoprotein (P-glycoprotein) were planted on 96-well Insert cell plates and cultured for 4 to 7 days to form aggregated monolayer cells. The assessment of unidirectional (A→B) permeability of the fenoterol (low permeability marker) and propranolol (high permeability marker) and the bi-directional permeability of Digoxin (a P-glycoprotein substrate) were used to verify the quality of monolayer cells. The three control compounds do two complex wells.
The standard conditions for the transport experiments of the test compound were as follows: • Test concentration: 2 μM (DMSO≤1%); • Repetition: n=3; • Direction: bidirectional transport consisting of two directions: A→B and B→A; • Incubation time: single time point, 2.5 hours; • Transport buffer: HB SS, pH 7.4; • Incubation conditions: 37° C., 5% CO2, 95% relative humidity.
After the incubation, the sample solutions taken from the donor wells and the receive wells were immediately mixed with a cold acetonitrile solution containing the internal standard. And the amount of accumulation of intracellular compounds was measured by lysing the cells with a cold acetonitrile solution containing the internal standard. The concentrations of the test compound in all samples (including the initial administration solution, the supernatant of donor wells, the receiver solution, the cell lysate) were analyzed by the LC/MS/MS method. The concentration of the test compound was expressed by the ratio of its peak area to the internal standard peak area.

Data set [1] relates to Mycobacterium bovis BCG strain TMC1019 (ATCC35737). Description: microbe, parasite or virus in culture. It counts as cell-based. To be noted: Mycobacterium tuberculosis variant bovis BCG, 24 h, read-out: M. bovis ATCC35737 (ug/mL).
The nature of the next data set: Kinetic solubility test. In kind it is physicochemical. Particulars: buffer, 22 °C, aqueous buffer, kinetic from dmso stock, pH 2.0, room temperature. How it is done:
1. […] The test compound and the control compound (10 mM DMSO mother liquor, 10 uL per well) were added to a 96-well plate containing 490 uL of buffer per well. After vortexing for 2 minutes, the plates were incubated on the shaker at room temperature (22±2° C.) for 24 hours. The 200 uL sample was then transferred to a MultiScreen filter plate (polycarbonate film), filtered through a millipore vacuum manifold, and the filtrate was collected. The concentration of the compound in the filtrate was determined by HPLC-UV. Three different concentrations of UV standard solution and solubility test samples were injected successively. Each sample was injected 2 times, and the concentration was taken into the standard curve, and the average value was calculated.

Another data set has as its system M. tuberculosis H37R. Description: M. tuberculosis LORA MIC. It counts as cell-based. Particulars: Mycobacterium tuberculosis, read-out: M. tuberculosis H37R LORA (MIC) (ug/mL).
In data set [2] the test system is Mycobacterium tuberculosis H37Rv strain. Description: In vitro MIC against M. tuberculosis H37Rv strain (MABA, Alamar Blue). It counts as cell-based. How it is done:
Part I: The in vitro efficacy of anti-Mycobacterium tuberculosis compounds was tested using H37Rv strain.
On the day of the test, the compound was dissolved in pure DMSO (Sigma 276855-2L) to a concentration of 10 mg/mL which was used as the mother liquor of the compound. 30 μL of DMSO was added to wells of column 2 to 11 s of the v-bottom 96-well plates (Axygen-wipp02280). 30 μL of the mother liquor of the compound was added to the well of column 2, after mixing, 30 μL was taken from the well of column 2 and added to the well of column 3, and then pipetted and mixed. The operation was taken to column 10. Column 11 was free of medicine and contained only 30 μL of DMSO. This was the “motherplate” of the compound. From column 2 to 11, the corresponding concentration of the compound was 5, 2.5, 1.25, 0.625, 0.3125, 0.156, 0.078, 0.039, 0.02, 0 mg/mL. […] A flat bottom 96-well plate (Greiner 655090) was used as a “daughterplate”. 98 μL of 7H9 (Sigma M0178) medium was added to the wells of all daughterplates. 2 μL of compound was extracted from the motherboard and added to the corresponding daughter plate. Line A and H, column 1 and 12 of the daughterplate contained only 7H9 medium.
The H37Rv strain in the glycerol cryovial was inoculated into 7H9 medium containing 0.05% Tween 80 and cultured for 4 weeks at 37° C. in a shaker with 200 rpm. The bacterial liquid was washed twice with 7H9 medium containing 0.05% Tween 80 and resuspended in the same medium. The absorbance of the bacteria liquid was adjusted to OD550=0.4-0.5 using the same medium. The bacteria liquid was sub-packed in microcentrifuge tubes and stored at −80° C. Storage time was no more than 1 month. On the day of the test, the packaged bacteria liquid would be […]. The bacteria liquid was diluted 20 times and then diluted 50 times with 7H9 medium, and a total of 1000 times dilution. The bacteria liquid would be used to inoculate on the daughterplate. 100 μL of bacterial liquid was inoculated in each well of the daughterboard, 100 μL 7H9 medium was added to column 12 and without bacteria liquid.
The test daughterplate was placed in an incubator at 37° C. and the humidity was maintained at >80%. A week later, 12.5 μL of 7H9 medium containing 20% Tween 80 and 20 μL of Alamar Blue (Invitrogen DAL1100) were added to the well of a column 1 containing bacteria and the well of a column 12 without bacteria every day, and then continue to incubate for 24 hours and observed. When the added Alamar Blue was reduced to pink in 24 hours by the bacteria liquid in the well of column 1, the 7H9 medium containing 20% Tween 80 and Alamar Blue were added to all wells on the test plate and the fluorescence values were measured after incubation for 24 hours at 37° C.
(Alamar Blue is a resazurin reagent that responds to reducing activity.)

Another data set deals with Vero Cell. In words: Vero cell cytotoxicity. In kind it is cell-based. Particulars: Chlorocebus sabaeus, Vero cells.
The nature of data set [3]: Pharmacokinetics in vivo in mice. Particulars: CD-1 male mice; for Pulmonary Drug Concentration (nM/Kg) PO 1 (h): lung, 1 h after administration; for Cmax: mouse, plasma. The protocol: The pharmacokinetic characteristics of rodents after intravenous and oral administration of the compound were tested in a standard protocol. Specifically, the candidate compounds of the experiment were injected intravenously and administered orally for 7 to 10 weeks old CD-1 male mice. The oral preparation was a 0.5% suspension of methylcellulose, and the intravenous preparation was a clear solution of ethanol/DMSO/polyethylene glycol 400/pure water (10:10:50:30). Plasma and lung samples were collected and analyzed by the LC-MS/MS method and the pharmacokinetic parameters were calculated.

In the case of `C[C@]1(CN2Cc3nc(-c4ccc(F)cc4)sc3C2)Cn2cc([N+](=O)[O-])nc2O1` [Compound 69, (S)-2-((2-(4-Fluorophenyl)-4H-pyrrolo[3,4-d]thiazol-5(6H)-yl)methyl)-2-methyl-6-nitro-2,3-dihydroimidazo[2,1-b]oxazole], the Papp A→B at 2.5 h, 2 μM with P-glycoprotein (MDR1) came to 20.9 ×10⁻⁶ cm/s. Besides, the Papp B→A at 2.5 h, 2 μM in the data set with P-glycoprotein (MDR1) stood at 15.8 ×10⁻⁶ cm/s. Further, in the data set with P-glycoprotein (MDR1), the efflux ratio at 2.5 h, 2 μM worked out at 0.76. The MIC in data set [1] is less than 1 µg/mL; in the data set on M. tuberculosis H37R it was 1 to 32 µg/mL (≈ 2.49 to 79.7 µM); in data set [2], less than 1 µg/mL. In “Kinetic solubility test”, the kinetic solubility at 24 h amounted to 39.3 µM (≈ 15.8 µg/mL). Further, the IC50 in the data set on Vero Cell is greater than 32 µg/mL.
Turning to `C[C@]1(CN2CCc3nc(-c4ccc(F)cc4)ccc3C2)Cn2cc([N+](=O)[O-])nc2O1` [Compound 7, (S)-2-((2-(4-Fluorophenyl)-7,8-dihydro-1,6-naphthyridin-6(5H)-yl)methyl)-2-methyl-6-nitro-2,3-dihydroimidazo[2,1-b]oxazole], in the data set on P-glycoprotein (MDR1), the Papp A→B at 2.5 h, 2 μM was determined as 17.7 ×10⁻⁶ cm/s. Moreover, the Papp B→A at 2.5 h, 2 μM in the data set on P-glycoprotein (MDR1) is 19.3 ×10⁻⁶ cm/s. Besides, the efflux ratio at 2.5 h, 2 μM in the data set with P-glycoprotein (MDR1) is 1.09. For the same compound, in data set [3], the “Pulmonary Drug Concentration (nM/Kg) PO 1 (h)” value stood at 16147 nM/kg. Besides, the “drug concentration in lung relative to the reference compound (OPC-67683)” value in data set [3] (oral, 1 hour after administration) is recorded as “more than 9 times”. Moreover, in data set [3] (oral), the Cmax was found to be 6720 nM. For the same compound, the MIC in data set [1] was less than 1 µg/mL; in the data set on M. tuberculosis H37R, 1 to 32 µg/mL (≈ 2.44 to 78.2 µM); in data set [2] it was less than 1 µg/mL. This compound also had a kinetic solubility at 24 h in “Kinetic solubility test” of 143 µM (≈ 58.7 µg/mL). In the data set with Vero Cell, this compound returned an IC50 greater than 32 µg/mL.
For `C[C@]1(COc2ccc(N3CCC(Oc4ccc(OC(F)(F)F)cc4)CC3)cc2)Cn2cc([N+](=O)[O-])nc2O1` [OPC-67683, delamanid, reference compound], in the data set on P-glycoprotein (MDR1), the Papp A→B at 2.5 h, 2 μM turned out to be 0.09 ×10⁻⁶ cm/s and the Papp B→A at 2.5 h, 2 μM came out at 0.17 ×10⁻⁶ cm/s. For the same compound, the “Pulmonary Drug Concentration (nM/Kg) PO 1 (h)” value in data set [3] was found to be 1677 nM/kg. The same compound displayed a Cmax in data set [3] (oral) of 4740 nM.
As for `CC1(CN2CCc3nc(-c4ccccc4)ccc3C2)Cn2cc([N+](=O)[O-])nc2O1` (single isomer, unassigned) [Compound 1B, 2-methyl-6-nitro-2-((2-phenyl-7,8-dihydro-1,6-naphthyridin-6(5H)-yl)methyl)-2,3-dihydroimidazo[2,1-b]oxazole], in the data set with P-glycoprotein (MDR1), the Papp A→B at 2.5 h, 2 μM came to 16.8 ×10⁻⁶ cm/s. The Papp B→A at 2.5 h, 2 μM in the data set with P-glycoprotein (MDR1) was 22.7 ×10⁻⁶ cm/s. In addition, the efflux ratio at 2.5 h, 2 μM in the data set with P-glycoprotein (MDR1) is 1.35. The MIC in data set [1] was less than 1 µg/mL; in the data set with M. tuberculosis H37R it was 1 to 32 µg/mL (≈ 2.55 to 81.8 µM); in data set [2], less than 1 µg/mL. In addition, the kinetic solubility at 24 h in the data set “Kinetic solubility test” is 130 µM (≈ 50.7 µg/mL). This compound also came in with an IC50 in the data set on Vero Cell greater than 32 µg/mL.
As for `C[C@]1(CN2Cc3nc(-c4ccc(F)cc4)oc3C2)Cn2cc([N+](=O)[O-])nc2O1` [Compound 89, (S)-2-(4-Fluorophenyl)-5-((2-methyl-6-nitro-2,3-dihydroimidazo[2,1-b]oxazol-2-yl)methyl)-5,6-dihydro-4H-pyrrolo[3,4-d]oxazole], in the data set with P-glycoprotein (MDR1), the Papp A→B at 2.5 h, 2 μM came out at 25.9 ×10⁻⁶ cm/s; the Papp B→A at 2.5 h, 2 μM worked out at 18.5 ×10⁻⁶ cm/s; the efflux ratio at 2.5 h, 2 μM was determined as 0.71. Further, the MIC in data set [1] was less than 1 µg/mL. This compound gave a kinetic solubility at 24 h in “Kinetic solubility test” of 100 µM (≈ 38.7 µg/mL). This compound showed an MIC in data set [2] of less than 1 µg/mL. The compound also had an IC50 with Vero Cell greater than 32 µg/mL.

A word on the kinetic solubility: it is the concentration staying in solution when a stock, usually in DMSO, is diluted into the medium. A word on the IC50: it is the midpoint of a concentration-inhibition curve. Read a low IC50 as greater potency. The term Cmax denotes the highest concentration seen after dosing.

(Values after patent publication US10227362B2 (priority 2015, dated 2019).)
